Measured values from ChEMBL document CHEMBL4622982, “Discovery and Biological Evaluation of a Novel Highly Potent Selective Butyrylcholinsterase Inhibitor” (J Med Chem, 2020).
pIC50, pKi: −log10 of the molar value. Calls of active or inactive are those of the source. No cut-off for these calls is given here.

Assays:
[1] = Effective permeability by PAMPA-BBB penetration assay; format: ADME; details: read-out: Peff
[2] = target: Acetylcholinesterase (Electrophorus electricus) (UniProt O42275); test: Inhibition of Electrophorus electricus AChE at 10 uM pre-incubated for 5 mins before acetylthiocholine iodide substrate addition and measured after 2 mins
[3] = target: Cholinesterase (Equus caballus) (UniProt P81908); test: Inhibition of equine serum BChE at 10 uM pre-incubated for 5 mins before butyrylthiocholine iodide substrate addition and measured after 2 mins
Acetylcholinesterase = Acetylcholinesterase (Electrophorus electricus, UniProt O42275); test: Inhibition of Electrophorus electricus AChE pre-incubated for 5 mins before acetylthiocholine iodide substrate addition and measured after 2 mins
Cholinesterase [4] = target: T1, Cholinesterase (Equus caballus, UniProt P81908); test: Inhibition of equine serum BChE pre-incubated for 5 mins before butyrylthiocholine iodide substrate addition and measured after 2 mins
Cholinesterase [5] = target: Cholinesterase (Homo sapiens, UniProt P06276); test: Inhibition of human BChE pre-incubated for 5 mins before butyrylthiocholine iodide substrate addition and measured after 2 mins
Cholinesterase [6] = target: T1, Cholinesterase; test: Noncompetitive inhibition of equine serum BChE pre-incubated for 5 mins before butyrylthiocholine iodide substrate addition and measured after 2 mins by Lineweaver-Burk plot analysis
[7] = target: Cholinesterase (Equus caballus) (UniProt P81908); test: Noncompetitive inhibition of equine serum BChE assessed as reduction in enzymatic velocity pre-incubated for 5 mins before butyrylthiocholine iodide substrate addition and measured after 2 mins by Lineweaver-Burk plot analysis
PC-12 [8] = test: Toxicity in rat PC12 cells assessed as reduction in cell viability at 2.5 to 50 uM incubated for 24 hrs by MTT assay; format: cell-based; details: pc-12, 24 h
SH-SY5Y [9] = test: Toxicity in human SH-SY5Y cells assessed as reduction in cell viability at 2.5 to 50 uM incubated for 24 hrs by MTT assay; format: cell-based
PC-12 [10] = test: Toxicity in rat PC12 cells assessed as reduction in cell viability at 100 uM incubated for 24 hrs by MTT assay relative to control; format: cell-based; details: pc-12, 24 h
SH-SY5Y [11] = test: Toxicity in human SH-SY5Y cells assessed as reduction in cell viability at 100 uM incubated for 24 hrs by MTT assay relative to control; format: cell-based
L02 = test: Toxicity in human L02 cells assessed as reduction in cell viability at 2.5 to 100 uM incubated for 24 hrs by MTT assay; format: cell-based; details: l02, 24 h
HepG2 = test: Toxicity in human HepG2 cells assessed as toxic dose for reduction in cell viability incubated for 24 hrs by MTT assay; format: cell-based; details: hepg2, 24 h
[12] = Toxicity in ICR mouse assessed as induction of animal death at 1 mg/kg, ig; format: organism-based; details: in vivo, po
[13] = Toxicity in ICR mouse assessed as induction of abnormal behaviors at 1 mg/kg, ig; format: organism-based; details: in vivo, po
[14] = Toxicity in ICR mouse assessed as effect on body weight at 1 mg/kg, ig; format: organism-based; details: in vivo, po
[15] = Hepatotoxicity in ICR mouse assessed as induction of pericentral necrosis at 30 mg/kg, ig measured after 8 to 36 hrs post dose by immunohistochemical staining assay; format: toxicity, organism-based; details: in vivo, po
[16] = Hepatotoxicity in ICR mouse assessed as induction of fatty degeneration of hepatocytes of surrounding intermediate and periportal zones at 30 mg/kg, ig measured after 8 to 36 hrs post dose by immunohistochemical staining assay; format: toxicity, organism-based; details: in vivo, po
SH-SY5Y [17] = test: Neuroprotection against Abeta(1-42)-induced cytotoxicity in human SH-SY5Y cells assessed as increase in cell viability incubated for 1 hr before Abeta(1-42) challenge and measured after 24 hrs by MTT assay; format: functional, cell-based
Mus musculus [18] = test: Improvement in cognition in ICR mouse model of scopolamine-induced cognition-impairment assessed as improvement in escape latency at 15 to 30 mg/kg, po dosed 30 mins before scopolamine challenge for 10 days by Morris water maze test; format: functional, organism-based
[19] = Toxicity in ICR mouse model of scopolamine-induced cognition-impairment assessed as induction of death at 15 to 30 mg/kg, po dosed 30 mins before scopolamine challenge for 10 days; format: organism-based; details: in vivo
[20] = Toxicity in ICR mouse model of scopolamine-induced cognition-impairment assessed as induction of behavioral abnormities at 15 to 30 mg/kg, po dosed 30 mins before scopolamine challenge for 10 days; format: organism-based; details: in vivo
Mus musculus [21] = test: Improvement in cognition in ICR mouse model of scopolamine-induced cognition-impairment assessed as improvement in trajectories to platform at 15 to 30 mg/kg, po dosed 30 mins before scopolamine challenge for 10 days by Morris water maze test; format: functional, organism-based
Mus musculus [22] = test: Improvement in cognition in ICR mouse model of Abeta(1-42)-induced cognition-impairment assessed as escape latency time at 15 mg/kg, po dosed from days 3 to 14 by Morris water maze test (reference value: 48.9 secs); format: functional
Mus musculus [23] = test: Improvement in cognition in ICR mouse model of Abeta(1-42)-induced cognition-impairment assessed as improvement in trajectories to platform at 15 mg/kg, po dosed from days 3 to 14 by Morris water maze test; format: functional, organism-based
Mus musculus [24] = test: Improvement in cognition in ICR mouse model of Abeta(1-42)-induced cognition-impairment assessed as spontaneous alternation performance level at 15 mg/kg, po dosed from days 3 to 14 and measured on day 15 by Y maze test (reference value: 34.43%); format: functional
[25] = Toxicity in ICR mouse model of Abeta(1-42)-induced cognition-impairment assessed as effect on body weight at 15 mg/kg, po dosed from days 3 to 14; format: organism-based; details: in vivo
Mus musculus [26] = test: Reduction in the Abeta(1-42) peptide level in ICR mouse model of Abeta(1-42)-induced cognition-impairment at 15 mg/kg, po dosed from days 3 to 14 by ELISA relative to control; format: functional; parameters: scale not given: the % may be the effect or the level left
[27] = Half life in human liver microsomes at 1 uM in presence of NADPH by LC-MS/MS analysis; format: ADME, Microsome
[28] = Intrinsic clearance in human liver microsomes at 1 uM in presence of NADPH by LC-MS/MS analysis; format: ADME, Microsome; details: read-out: CLH
[29] = Selectivity index, ratio of inhibition of Electrophorus electricus AChE pre-incubated for 5 mins before acetylthiocholine iodide substrate addition and measured after 2 mins to IC50 for inhibition of equine serum BChE pre-incubated for 5 mins before butyrylthiocholine iodide substrate addition and measured after 2 mins

Chain of Acetylcholinesterase (O42275 whole entry): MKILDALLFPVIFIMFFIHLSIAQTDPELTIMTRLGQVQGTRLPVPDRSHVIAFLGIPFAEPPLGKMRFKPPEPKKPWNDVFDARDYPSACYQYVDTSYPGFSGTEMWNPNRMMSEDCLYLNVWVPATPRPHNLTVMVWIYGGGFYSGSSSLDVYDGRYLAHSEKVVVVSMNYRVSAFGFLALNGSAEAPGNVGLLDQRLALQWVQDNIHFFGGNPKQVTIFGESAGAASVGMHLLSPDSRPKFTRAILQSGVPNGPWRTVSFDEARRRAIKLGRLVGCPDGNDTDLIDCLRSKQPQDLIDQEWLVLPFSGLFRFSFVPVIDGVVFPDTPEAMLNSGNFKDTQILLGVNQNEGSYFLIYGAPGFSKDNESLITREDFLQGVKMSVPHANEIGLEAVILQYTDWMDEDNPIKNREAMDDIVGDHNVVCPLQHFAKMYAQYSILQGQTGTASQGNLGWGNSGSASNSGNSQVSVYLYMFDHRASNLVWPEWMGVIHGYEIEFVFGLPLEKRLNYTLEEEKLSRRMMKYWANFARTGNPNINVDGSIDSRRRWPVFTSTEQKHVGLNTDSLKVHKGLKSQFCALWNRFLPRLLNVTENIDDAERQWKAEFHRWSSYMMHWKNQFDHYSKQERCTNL
Chain of Acetylcholinesterase (Electrophorus electricus) (O42275 24-633 limits assumed): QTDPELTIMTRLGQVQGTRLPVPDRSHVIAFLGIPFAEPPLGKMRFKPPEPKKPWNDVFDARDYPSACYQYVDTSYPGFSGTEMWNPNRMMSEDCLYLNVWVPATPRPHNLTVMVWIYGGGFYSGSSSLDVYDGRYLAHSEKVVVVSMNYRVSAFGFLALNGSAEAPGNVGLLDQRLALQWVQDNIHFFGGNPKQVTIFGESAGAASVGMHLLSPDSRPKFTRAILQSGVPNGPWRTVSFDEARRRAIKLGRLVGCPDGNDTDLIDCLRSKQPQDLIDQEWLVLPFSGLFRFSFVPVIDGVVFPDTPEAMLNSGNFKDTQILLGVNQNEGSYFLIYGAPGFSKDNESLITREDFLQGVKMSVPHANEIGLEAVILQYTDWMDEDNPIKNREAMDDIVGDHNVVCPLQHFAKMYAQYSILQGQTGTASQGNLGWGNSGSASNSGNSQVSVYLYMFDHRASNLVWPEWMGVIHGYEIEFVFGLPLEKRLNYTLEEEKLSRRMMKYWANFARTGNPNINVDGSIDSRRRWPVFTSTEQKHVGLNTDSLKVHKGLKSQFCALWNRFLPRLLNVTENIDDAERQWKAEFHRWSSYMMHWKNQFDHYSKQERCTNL
T1 sequence (P81908 whole entry): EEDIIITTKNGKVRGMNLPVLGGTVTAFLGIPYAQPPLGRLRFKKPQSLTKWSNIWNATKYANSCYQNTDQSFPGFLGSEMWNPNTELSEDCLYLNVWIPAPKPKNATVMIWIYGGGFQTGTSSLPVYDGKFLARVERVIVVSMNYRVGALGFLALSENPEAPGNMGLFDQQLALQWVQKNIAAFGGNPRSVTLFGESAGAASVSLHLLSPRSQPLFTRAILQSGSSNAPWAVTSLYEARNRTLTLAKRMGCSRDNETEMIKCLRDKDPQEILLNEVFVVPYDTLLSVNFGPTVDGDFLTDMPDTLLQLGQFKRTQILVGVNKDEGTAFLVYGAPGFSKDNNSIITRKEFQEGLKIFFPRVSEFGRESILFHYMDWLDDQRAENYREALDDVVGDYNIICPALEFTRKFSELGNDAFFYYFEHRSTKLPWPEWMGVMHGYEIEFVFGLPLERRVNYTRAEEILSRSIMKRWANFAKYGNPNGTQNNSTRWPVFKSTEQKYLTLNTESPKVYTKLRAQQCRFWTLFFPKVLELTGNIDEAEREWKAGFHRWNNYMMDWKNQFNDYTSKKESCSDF
Chain of Cholinesterase (Equus caballus) (P81908 whole entry): as above
Chain of Cholinesterase (Homo sapiens, UniProt P06276) (P06276 whole entry): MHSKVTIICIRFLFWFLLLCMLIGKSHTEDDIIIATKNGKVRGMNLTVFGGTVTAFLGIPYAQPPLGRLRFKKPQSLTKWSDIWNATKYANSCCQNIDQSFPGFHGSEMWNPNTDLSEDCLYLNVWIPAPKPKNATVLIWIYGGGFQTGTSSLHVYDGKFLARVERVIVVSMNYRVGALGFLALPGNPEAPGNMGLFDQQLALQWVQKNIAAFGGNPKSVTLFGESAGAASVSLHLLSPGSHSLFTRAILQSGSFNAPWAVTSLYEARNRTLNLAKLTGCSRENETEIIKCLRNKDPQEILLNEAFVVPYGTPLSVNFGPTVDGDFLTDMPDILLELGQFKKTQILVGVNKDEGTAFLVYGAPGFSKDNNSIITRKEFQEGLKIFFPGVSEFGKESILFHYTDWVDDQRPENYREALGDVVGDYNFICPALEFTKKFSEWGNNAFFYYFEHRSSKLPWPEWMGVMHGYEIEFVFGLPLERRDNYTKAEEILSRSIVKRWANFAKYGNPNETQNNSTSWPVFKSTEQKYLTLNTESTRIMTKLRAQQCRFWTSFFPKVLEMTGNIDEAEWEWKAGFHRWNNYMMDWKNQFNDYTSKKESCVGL

Which Papp [1] does the source give for `Clc1cccc(Cl)c1N=C1NCCN1` [CLONIDINE] here?
Its Papp is 8.8 ×10⁻⁶ cm/s.

For `CCc1noc(-c2cnc3nc(C)ccc3c2Nc2ccc3c(c2)OCCO3)n1`, which inhibition [2] is on record?
Its inhibition is 50.6%.

And the inhibition [3]?
The inhibition was 1.63%.

And the pIC50 (Acetylcholinesterase)?
Its pIC50 is 5.81.

Which Papp [1] does the source give for `CN1C(C(=O)Nc2ccccn2)=C(O)c2ccccc2S1(=O)=O` [PIROXICAM] here?
Its Papp is 1.69 ×10⁻⁶ cm/s.

For `COc1ccc(C2=C(Nc3ccc4oc5ccccc5c4c3)c3ccccc3C2=O)cc1`, which inhibition [2] is on record?
Its inhibition is 42.6%.

What about the inhibition [3] of the same molecule?
Its inhibition is 4.03%.

Which inhibition [2] does the source give for `Cc1ccc(OCc2nc(CN(CC(C)C)C(=O)c3ccc4c(c3)OCO4)cs2)cc1` here?
Its inhibition is -6.37%.

And the inhibition [3]?
The inhibition was 54%.

What about the pIC50 (Acetylcholinesterase) of the same molecule?
Its pIC50 is 4.96.

What about the pIC50 (Cholinesterase [4]) of the same molecule?
The pIC50 was 4.75.

Which inhibition [2] does the source give for `CN(CCc1noc(-c2cc3ccccc3[nH]2)n1)C(=O)c1ccc(N(C)C)cc1` here?
Its inhibition is 39.4%.

What about the inhibition [3] of the same molecule?
Its inhibition is 35.4%.

With `O=C(c1ccc(C(F)(F)F)cc1)N(CCc1nc(-c2ccc(C(F)(F)F)cc2)no1)Cc1ccco1` as the molecule, how does the inhibition [2] read?
Its inhibition is -0.61%.

For `COc1cc2c(cc1NC(=O)C(=O)c1c(-c3ccccc3)[nH]c3ccccc13)oc1ccccc12`, which inhibition [2] is on record?
The inhibition was -4.57%.

What about the inhibition [3] of the same molecule?
Its inhibition is 0.73%.

What does the source list for `Cc1ccc2cc(NC(=O)Cn3c(-c4nonc4N)nc4ccccc43)ccc2n1`?
inhibition [2]: 15.3%; inhibition [3]: 96.5%; pIC50 (Acetylcholinesterase): < 4.00; pIC50 (Cholinesterase [4]): 6.74; pIC50 (Cholinesterase [5]): 6.49; pKi (Cholinesterase [6]): 6.63; inhibition [7]: Dose-dependent effect; Activity (PC-12 [8]): Non-Toxic; Activity (SH-SY5Y [9]): Non-Toxic; Activity (PC-12 [10]): 50%; Activity (SH-SY5Y [11]): 50%; Activity (L02): Non-Toxic; Activity (HepG2): > 20 µM; Activity [12]: Non-Toxic; Activity [13]: Non-Toxic; Activity [14]: Non-Toxic; Activity [15]: Non-Toxic; Activity [16]: Non-Toxic; Papp [1]: 7.84 ×10⁻⁶ cm/s; Activity (SH-SY5Y [17]): Dose-dependent effect; Activity (Mus musculus [18]): Dose-dependent effect; Activity [19]: Non-Toxic; Activity [20]: Non-Toxic; Activity (Mus musculus [21]): Dose-dependent effect; Time (Mus musculus [22]): 8.83 s; Activity (Mus musculus [23]): Active; Activity (Mus musculus [24]): 63.44%; Activity [25]: Non-Toxic; Activity (Mus musculus [26]): 40.56%; half-life at 1 µM [27]: 41.9 min; CLint scaled at 1 µM [28]: 41.5 mL/min/kg; Ratio IC50 [29]: > 500

For `COc1ccc(-c2cccc(-n3cncc3C(=O)N3Cc4ccccc4C3)c2)cc1OC`, which inhibition [2] is on record?
The inhibition was 6.29%.

What about the inhibition [3] of the same molecule?
Its inhibition is 53.4%.

And the pIC50 (Cholinesterase [4])?
Its pIC50 is 4.76.

With `NCCc1ccc(O)c(O)c1` [DOPAMINE] as the molecule, how does the Papp [1] read?
Its Papp is 3.3 ×10⁻⁶ cm/s.

For `COc1ccc(-c2noc(CN(C(=O)c3ccc4c(c3)OCO4)C3CCCCC3)n2)cc1`, which inhibition [2] is on record?
The inhibition was -3.2%.

And the inhibition [3]?
Its inhibition is 4.33%.

For `CCCN(Cc1csc(COc2ccc(C)cc2)n1)C(=O)c1ccc2c(c1)OCO2`, which inhibition [2] is on record?
The inhibition was -0.26%.

What about the inhibition [3] of the same molecule?
Its inhibition is 54.8%.

What about the pIC50 (Cholinesterase [4]) of the same molecule?
The pIC50 was 4.85.

For `CC(=O)[C@H]1CC[C@H]2[C@@H]3CCC4=CC(=O)CC[C@]4(C)[C@H]3CC[C@]12C` [PROGESTERONE], which Papp [1] is on record?
Its Papp is 15.5 ×10⁻⁶ cm/s.

For `Cc1ccc(-c2nc3ccccc3o2)cc1NCc1cc(Cc2ccccc2)ccc1O`, which inhibition [2] is on record?
The inhibition was 6.25%.

What about the inhibition [3] of the same molecule?
The inhibition was 8.49%.

Which results are given for `CN(CCc1noc(-c2cc3ccccc3[nH]2)n1)C(=O)c1ccc(C(C)(C)C)cc1`?
inhibition [2]: 51.6%; inhibition [3]: 20.3%

Which results are given for `COCCN(Cc1csc(COc2ccc(C)cc2)n1)C(=O)c1ccc(OC)cc1`?
inhibition [2]: 5.79%; inhibition [3]: 7.17%

For `CN(C)CCCN1c2ccccc2Sc2ccc(Cl)cc21` [CHLORPROMAZINE], which Papp [1] is on record?
The Papp was 12.4 ×10⁻⁶ cm/s.

With `C[C@]12CC[C@@H]3c4ccc(O)cc4CC[C@H]3[C@@H]1CC[C@@H]2O` [ESTRADIOL] as the molecule, how does the Papp [1] read?
The Papp was 20.5 ×10⁻⁶ cm/s.

What does the source list for `COc1cc2c(cc1OC)C(=O)C(CC1CCN(Cc3ccccc3)CC1)C2` (stereo not drawn) [DONEPEZIL]?
Time (Mus musculus [22]): 15.3 s; Activity (Mus musculus [23]): Active; Activity (Mus musculus [24]): 65.23%; Activity (Mus musculus [26]): 24.08%

For `C[C@]12CCC(=O)C=C1CC[C@@H]1[C@@H]2C(=O)C[C@]2(C)C(=O)CC[C@@H]12` [ADRENOTERONE], which Papp [1] is on record?
The Papp was 6.05 ×10⁻⁶ cm/s.

For `O=C(c1ccc(F)cc1)C1CCN(CCn2c(=O)[nH]c3ccccc3c2=O)CC1` [KETANSERIN], which half-life at 1 µM [27] is on record?
Its half-life at 1 µM is 31.4 min.

What about the CLint scaled at 1 µM [28] of the same molecule?
Its CLint scaled at 1 µM is 55.3 mL/min/kg.
